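Following 48 hours of exposure in 96-well plates, responses at five concentrations were used to interpolate endpoints linearly. At the GI50, growth is halved. TGI: concentration producing complete growth inhibition.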
Assays:
Assay in all cases: NCI tumour cell line growth inhibition, 48 h
SN12C renal = system: SN12C renal
LOX IMVI melanoma = system: LOX IMVI melanoma
DU-145 prostate = system: DU-145 prostate
HCC-2998 colon = system: HCC-2998 colon
UACC-62 melanoma = system: UACC-62 melanoma
RPMI-8226 leukemia = system: RPMI-8226 leukemia
UO-31 renal = system: UO-31 renal
A549 NSCLC = system: A549 NSCLC
SR leukemia = system: SR leukemia
OVCAR-8 ovarian = system: OVCAR-8 ovarian
M14 melanoma = system: M14 melanoma
MCF7 breast = system: MCF7 breast
SF-268 CNS = system: SF-268 CNS
SK-MEL-5 melanoma = system: SK-MEL-5 melanoma
T-47D breast = system: T-47D breast
MDA-MB-435 = system: MDA-MB-435
786-0 renal = system: 786-0 renal
HCT-15 colon = system: HCT-15 colon
SF-539 CNS = system: SF-539 CNS
CAKI-1 renal = system: CAKI-1 renal
SK-MEL-28 melanoma = system: SK-MEL-28 melanoma
NCI-H23 lung = system: NCI-H23 lung
MOLT-4 leukemia = system: MOLT-4 leukemia
ACHN renal = system: ACHN renal
OVCAR-5 ovarian = system: OVCAR-5 ovarian
COLO 205 colon = system: COLO 205 colon
MDA-MB-468 breast = system: MDA-MB-468 breast
MALME-3M melanoma = system: MALME-3M melanoma
NCI-H226 lung = system: NCI-H226 lung
NCI-H460 lung = system: NCI-H460 lung

OCc1[nH]nc2cc(Nc3ncc4ccc(Br)c(OC5CCC(O)CC5)c4n3)ccc12 (configuration not stated)
TGI (SN12C renal): 20000 nM | GI50 (LOX IMVI melanoma): 16.4 nM | TGI (LOX IMVI melanoma): 59.2 nM | GI50 (DU-145 prostate): 35.9 nM | TGI (DU-145 prostate): > 100000 nM | GI50 (HCC-2998 colon): 51.2 nM | TGI (HCC-2998 colon): 519 nM | GI50 (UACC-62 melanoma): 35.9 nM | TGI (UACC-62 melanoma): 379 nM | GI50 (RPMI-8226 leukemia): 276 nM | TGI (RPMI-8226 leukemia): > 100000 nM | GI50 (UO-31 renal): 28.8 nM | TGI (UO-31 renal): 278 nM | GI50 (A549 NSCLC): 157 nM | TGI (A549 NSCLC): > 100000 nM | TGI (SR leukemia): > 100000 nM | GI50 (OVCAR-8 ovarian): 40.5 nM | TGI (OVCAR-8 ovarian): > 71900 nM | GI50 (M14 melanoma): 45 nM | TGI (M14 melanoma): 1740 nM | GI50 (MCF7 breast): 19.9 nM | TGI (MCF7 breast): 1100 nM | GI50 (SF-268 CNS): 33.5 nM | TGI (SF-268 CNS): 1320 nM | GI50 (SK-MEL-5 melanoma): 27 nM | TGI (SK-MEL-5 melanoma): 428 nM | GI50 (T-47D breast): 41.1 nM | TGI (T-47D breast): 904 nM | GI50 (MDA-MB-435): 39.9 nM | TGI (MDA-MB-435): 2470 nM | GI50 (786-0 renal): 37.1 nM | TGI (786-0 renal): 2700 nM | GI50 (HCT-15 colon): 36 nM | TGI (HCT-15 colon): 1540 nM | GI50 (SF-539 CNS): 22.5 nM | TGI (SF-539 CNS): 69.6 nM | GI50 (CAKI-1 renal): 21.2 nM | TGI (CAKI-1 renal): 2400 nM | GI50 (SK-MEL-28 melanoma): 49.9 nM | TGI (SK-MEL-28 melanoma): 963 nM | GI50 (NCI-H23 lung): 40.2 nM | TGI (NCI-H23 lung): 257 nM | GI50 (MOLT-4 leukemia): 37.2 nM | TGI (MOLT-4 leukemia): > 100000 nM | GI50 (ACHN renal): 23.1 nM | GI50 (OVCAR-5 ovarian): 50 nM | TGI (OVCAR-5 ovarian): 316 nM | GI50 (COLO 205 colon): 31.7 nM | TGI (COLO 205 colon): 145 nM | GI50 (MDA-MB-468 breast): 30.1 nM | TGI (MDA-MB-468 breast): 100 nM | GI50 (MALME-3M melanoma): 88.2 nM | TGI (MALME-3M melanoma): 517 nM | GI50 (NCI-H226 lung): 16.4 nM | TGI (NCI-H226 lung): 77 nM | GI50 (NCI-H460 lung): 47.4 nM | TGI (NCI-H460 lung): 4380 nM

— PubChem BioAssay (NCI)
